Data taken from ChEMBL document CHEMBL1127176, “Restricted rotation analogs of S-adenosylmethionine: synthesis, evaluation as inhibitors of S-adenosylmethionine decarboxylase, and potential use as selective antitrypanosomal agents” (Bioorg Med Chem Lett, 1993).

What was measured:
HL-60 = test: Tested for the ability to traverse cell membranes and to alter ratio of AdoMet to S-adenosyl-homocysteine (AdoHcy) in HL60 human promyelocytic leukemia cells; format: functional, cell-based
Trypanosoma brucei = test: Tested for antitrypanosomal activity against blood forms of Trypanosoma uM concentration; format: functional
HT-29 = test: Tested for the ability to traverse cell membranes and to alter ratio of AdoMet to S-adenosyl-homocysteine (AdoHcy) in HT-29 human colon carcinoma; IA means inactive; format: functional, cell-based
L1210 = test: Tested for the ability to traverse cell membranes and to alter ratio of AdoMet to S-adenosyl-homocysteine (AdoHcy) in L1210 murine lymphocytic leukemia cells; IA means inactive; format: functional, cell-based, Mus musculus

Compound	IC50 (HL-60) [mM]	Inhibition (Trypanosoma brucei) [%]	IC50 (HT-29)	IC50 (L1210)
C[S+](C[C@H]1O[C@@H](n2cnc3c(N)ncnc32)[C@H](O)[C@@H]1O)[C@H]1CN[C@H](C(=O)O)C1.O=S(=O)(O)O.O=S(=O)([O-])O (stereo partly drawn)	> 1	34	–	–
C[S+](C[C@H]1O[C@@H](n2cnc3c(N)ncnc32)[C@H](O)[C@@H]1O)C1C=C[C@H](N)C1.O=S(=O)(O)O.O=S(=O)([O-])O (stereo partly drawn)	–	50	Not Active	Not Active
C[S+](C[C@H]1O[C@@H](n2cnc3c(N)ncnc32)[C@H](O)[C@@H]1O)C1CCNC1.O=S(=O)(O)O.O=S(=O)([O-])O (stereo partly drawn)	–	49	–	–
C[S+](C[C@H]1O[C@@H](n2cnc3c(N)ncnc32)[C@H](O)[C@@H]1O)C1CN[C@H](C(=O)O)C1.O=S(=O)(O)O.O=S(=O)([O-])O (stereo partly drawn)	> 1	64	–	–
Nc1ncnc2c1ncn2[C@@H]1O[C@H](CS[C@@H]2CN[C@H](C(=O)O)C2)[C@@H](O)[C@H]1O.O=S(=O)(O)O	> 1	30	–	–
Nc1ncnc2c1ncn2[C@@H]1O[C@H](CSC2CCNC2)[C@@H](O)[C@H]1O.O=S(=O)(O)O (stereo partly drawn)	–	40	–	–
Nc1ncnc2c1ncn2[C@@H]1O[C@H](CS[C@H]2CN[C@H](C(=O)O)C2)[C@@H](O)[C@H]1O.O=S(=O)(O)O	> 1	41	–	–
